Measured values reported in patent US20080300303A1, “Substances and Pharmaceutical Compositions for the Inhibition of Glyoxalases and Their Use As Anti-Fungal Agents” (priority 2005, published 2008).
Structures can show the parent of a compound that is named as a salt.

Key:
[1] = test system: fluconazole sensitive Candida albicans strain R/HO13; experiment: Growth of fluconazole sensitive Candida albicans, O.D. at 600 nm; type: cell-based
[2] = test system: fluconazole resistant Candida albicans strain A435 5; experiment: Growth of fluconazole resistant Candida albicans, O.D. at 600 nm; type: cell-based
Experimental: A colony of the fluconazole resistant Candida albicans strain A435 5 was cultured in the same medium and under the same conditions as used for Saccharomyces HD65-5a.
At an O.D. of 14.4 (600 nm) a starting density of O.D. 0.20 was set by dilution with culture medium.
(§1) Samples of 1 ml were taken after 5 hours and the O.D. at 600 nm was determined as a standard for the cell number. The resistance against fluconazole was determined according to the guidelines of NCCLS (1997). Resistance is defined as growth at a dosage of a ≧64 μg/ml of fluconazole.

[3] = test system: Saccharomyces cerevisiae HD65-5a; experiment: Growth of yeast cells, O.D. at 600 nm; conditions: increasing concentrations, (FIG. 8, Table 5)
yeast glyoxalase I = target: T1, yeast glyoxalase I (Saccharomyces cerevisiae, UniProt P50107); experiment: Enzymatic activity of yeast glyoxalase I; type: biochemical; conditions: for Inhibition of the reaction of yeast glyoxalase I: increasing concentrations (FIG. 1-3; 0-30 mM in FIG. 3)
T1 construct: purchased Sigma G-4252
T1 sequence (P50107 1-326): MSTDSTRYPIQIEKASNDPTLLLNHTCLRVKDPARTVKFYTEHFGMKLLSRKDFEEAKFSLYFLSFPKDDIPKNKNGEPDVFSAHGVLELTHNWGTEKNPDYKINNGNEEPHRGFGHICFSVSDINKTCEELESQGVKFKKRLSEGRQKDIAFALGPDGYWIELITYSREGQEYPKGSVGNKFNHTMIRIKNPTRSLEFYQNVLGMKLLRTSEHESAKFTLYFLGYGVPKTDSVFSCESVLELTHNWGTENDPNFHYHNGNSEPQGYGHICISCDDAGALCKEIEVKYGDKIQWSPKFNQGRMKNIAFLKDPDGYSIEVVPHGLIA
Experimental: Measuring glyoxalase I (E.C.4.4.1.5, lactoyl-glutathione lyase Sigma, G-4252) was performed according to the instructions of McLellan and Thornalley (1989). The principle is based on measuring the initial rate of formation of S-D-lactoyl-glutathione from methylglyoxal (Sigma, M0252, 40%) and reduced L-glutathione (Aldrich, G-4251, >99%). The formation of the product is observed using the extinction coefficient e=2.86 mM−1 cm−1 at 240 nm. The measurement was performed in 50 mM sodium phosphate buffer, pH 7.0. For that purpose 2 mM methylglyoxal and 2 mM reduced glutathione were incubated for 2 minutes at 30° C. for the formation of the hemithioacetal. Thereafter 20 μl of a 1 to 1000 dilution of the glyoxalase I (Sigma, G-4252) was added to 1 ml of the measuring reagent to start the reaction.
Glyoxalase activity (IU) corresponds to the amount of enzyme forming 1 μmol of S-D-lactoyl-glutathione/min.
Determination of glyoxalase I activity was performed according to the general protocol as described above. The influence of ethyl pyruvate on enzyme activity was investigated by addition of increasing concentrations of EP (Sigma; no. E4,780-8; lot. S18972-513) to the measuring reagent.
Determination of glyoxalase I activity was performed according to the general protocol as described above. The influence of compounds of the general formula (I), (II), and (III) on the activity of the enzyme was investigated by addition of increasing concentrations of these compounds to the preparation. The IC50-values were calculated from inhibition curves of each compound.
Determination of glyoxalase I activity . . . was performed according to the general protocol as described above. The influence of 2-oxopropanethioic acid S-ethyl ester on the activity of the enzyme was investigated by addition of increasing concentrations of SE to the preparation for the measurement.
Determination of glyoxalase I activity was performed according to the general protocol as described above. The influence of effectors on the enzymatic activity was investigated by addition of increasing concentrations (0-30 mM) of EP (Sigma; no. E4,780-8; lot. S18972-513) (triangle), BP (prepared according to the instructions of patent JP 11080089; 98%) (circle) and BL (Fluka, 69819; lot. 443090/1 21503090) (squares) to the measuring reagent (FIG. 3).

[4] = test system: primary human skin fibroblasts; experiment: Vitality of primary human fibroblasts (dye exclusion count); type: cell-based; conditions: 1-50 mM, 24 hours, serum free medium, FIG. 7
Experimental: An identical number (10^4 cells per well) of primary human skin fibroblasts were inoculated in 24-well plates (Greiner, no. 662160) and were cultured in DMEM (Gibco; no. 41966-092) in the presence of 10% calf serum (Biochrom, S0113/5), 2 mM L-glutamine (Gibco; no. 25030-024), penicillin/streptomycin (100 units penicillin/ml; 100 μg streptomycin/ml, Gibco; no. 15140/122), 5 mg % ascorbic acid (Serva, no. 14030.02) at 37° C., 5% CO2 and 95% humidity. The primary human fibroblasts were prepared according to the instructions of Birkenmeier et al. (1998). After reaching 50% confluency the medium was by fresh serum free medium. Thereafter the following supplements were added to the cells: preparation 1 (equivalent volume of serum free (SF) medium, blank); preparation 2 (1 mM DEL or 1 mM LEL or 1 mM EP); preparation 3 (5 mM DEL or 5 mM LEL or 5 mM EP), preparation 4 (10 mM DEL or 10 mM LEL or 10 mM EP), preparation 5 (20 mM DEL or 20 mM LEL or 20 mM EP), preparation 6 (50 mM DEL or 50 mM LEL or 50 mM EP). The culture was continued at 37° C., 5% CO2 and 95% humidity for 24 hours. Thereafter the supernatants were removed and 100 μl of a 50% […] solution was added to the wells. After washing the cells with medium the unstained and stained cells were counted under the light optical microscope comprising a coordinate plane. Cells stained blue were assessed as avital, unstained cells as vital. The percentage of unstained cells of the total number of cells corresponds to the vitality of the cells.

Candida albicans [5] = experiment: Fluconazole susceptibility according to NCCLS guidelines; type: cell-based
Experimental: as §1
The strain was sensitive against fluconazole at a dosage of ≦0.13 μg/ml.

[6] = target: T2, glyoxalase I of human erythrocytes (Homo sapiens, UniProt Q04760); experiment: Enzymatic activity of human erythrocyte glyoxalase I; type: biochemical; conditions: 0-50 mM, FIG. 5
T2 construct: from tissue; host or cells: human erythrocyte lysate
T2 sequence (Q04760 2-184 limits assumed): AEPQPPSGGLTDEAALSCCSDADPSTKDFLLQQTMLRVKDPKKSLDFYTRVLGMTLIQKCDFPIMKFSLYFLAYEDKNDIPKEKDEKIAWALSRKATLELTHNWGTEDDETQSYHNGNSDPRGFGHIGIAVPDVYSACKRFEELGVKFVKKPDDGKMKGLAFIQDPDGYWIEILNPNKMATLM
Experimental: The determination of glyoxalase I was performed as described above for the yeast enzyme. After the formation of the hemithioacetal, suitable amounts (5 to 100 μl) of an erythrocyte lysate were added to 1 ml of the measuring reagent to start the reaction. The erythrocyte lysate was prepared according to the instructions of Mannervik et al. (1982).
Glyoxalase activity (IU) corresponds to the amount of enzyme forming […] of S-D-lactoyl-glutathione/min.
Determination of glyoxalase I activity was performed according to the general protocol as described above. The influence of ethyl pyruvate on enzyme activity was investigated by addition of increasing concentrations of EP (Sigma; no. E4,780-8; lot. S18972-513) (0-50 mM) to the measuring reagent.

[7] = test system: Candida albicans, Candida krusei, Candida tropicalis, Candida glabrata, Candida parapsilosis; experiment: Agar dilution antimicrobial susceptibility test; type: cell-based, Candida spp.; conditions: 12.5 mM to 40 mM in agar, 37° C., 20 hours, FIG. 9
Experimental: Control agar plates were prepared without EP.

yeast glyoxalase II = experiment: Enzymatic activity of yeast glyoxalase II (cell free extract); type: biochemical, Saccharomyces cerevisiae; conditions: 0-20 mM, FIG. 4
Experimental: Protein concentration of the cell free extract was determined according to the Bradford method (Bradford, 1976).
The activity of the glyoxalase II (Hydroxyacyl glutathione hydrolase, E.C. 3.1.2.6.) was determined according to the instructions of Martins et al. (1999) in 0.1 M MES buffer, pH 6.5, 1.5 mM S-D-lactoyl-glutathione (L7140, Sigma-Aldrich Chemistry GmbH) and 0.75 mM DTNB (Sigma, D8130). After addition of suitable amounts of cell extract and an incubation period of 15 min at 25° C. the formation of glutathione was measured at 412 nm (ε=13.6 mM^−1 cm^−1). The activity of the glyoxalase II (IU) correlates with the amount of enzyme hydrolysing 1 μmol of S-D-lactoyl-glutathion/min.
The influence of ethyl pyruvate on the activity of the enzyme was investigated by adding increasing concentrations of EP (Sigma, No. E4,780-8; Lot. S18972-513) (0-20 mM) to the measurement reagent.

[8] = target: T3, glyoxalase II of human erythrocytes (Homo sapiens, UniProt Q16775); experiment: Enzymatic activity of human erythrocyte glyoxalase II; type: biochemical; conditions: 0-20 mM, FIG. 6
T3 construct: from tissue; host or cells: human erythrocyte hemolysate
Experimental: The determination of erythrocyte glyoxalase II (E.C.3.1.2.6., hydroxyacyl glutathione hydrolase) was performed according to the instructions of McLellan and Thornalley (1989). The principle is based on determining the initial hydrolysis of S-D-lactoyl-glutathione (L 7140, Sigma—Aldrich Chemie GmbH) in the presence of low amounts of a cell extract. Hydrolysis is observed on the basis of the reduction of the extinction at 240 nm (e=−3.1 mM−1 cm−1). Glyoxalase II activity (IU) correlates to the amount of enzyme hydrolysing 1 μmol of S-D-lactoyl-glutathione/min. The measurement was performed in 100 mM Tris-HCl buffer, pH 7.4. For this purpose 0.4 mM S-D-lactoyl-glutathione was added to 1 ml of the measuring reagent and the reaction was started by addition of suitable amounts (5-100 μl) of an erythrocyte hemolysate. The erythrocyte lysate was prepared according to the instructions of Mannervik et al. (1982).
Determination of glyoxalase II activity was performed according to the general protocol as described above. The influence of ethyl pyruvate on the activity of the enzyme was investigated by addition of increasing concentrations of EP (Sigma, no. E 4,780-8; lot. S18972-513) (0-20 mM) to the measuring reagent.

Candida albicans [9] = experiment: Mouth lavage in a patient suffering from candidiasis; type: in vivo; conditions: lavage 10 ml 75 mM ethyl pyruvate, 1% glucose in saline, 3 times daily over 4 days
Experimental: A patient with a diagnosis of diabetes mellitus (presenting with a fasting blood sugar level of 6.88 mM) complained about dryness in the mouth, chapped lips and white blotchy alterations of the oral mucosa.

Inhibition of the reaction of yeast glyoxalase I (yeast glyoxalase I) | Compound | Inhibition of growth of fluconazole resistant Candida albicans cells [2] | IC50 (yeast glyoxalase I) [mM] | Toxicity / vitality of primary human fibroblasts [4] | further results
 | CCOC(=O)C(=O)CC [Ethyl 2-oxobutyrate] | inhibit | 1.8 |  | 
 | COC(=O)C(C)=O [Methyl pyruvate] |  | 15 |  | 
does not influence | CCCCOC(=O)[C@H](C)O [(−)-Butyl L-Lactate] |  |  |  | 
 | CCOC(=O)[C@@H](C)O [(+)-Ethyl D-Lactate] |  |  | not toxic | 
 | CCOC(=O)[C@H](C)O [(−)-Ethyl L-Lactate] |  |  | not toxic | Inhibition of growth of yeast cells [3]: did not influence growth
 | CCOC(=O)C(=O)OCC [Diethyl oxalate, reference compound] |  | > 50 |  | 
inhibits | CCSC(=O)C(C)=O [SE, 2-Oxopropanethioic acid S-ethyl ester] |  |  |  | 
 | OC(Cn1cncn1)(Cn1cncn1)c1ccc(F)cc1F [fluconazole] |  |  |  | Fluconazole dosage at which growth defines resistance (Candida albicans [5]; strain A435 5, NCCLS (1997)): ≥ 64 µg/mL; Fluconazole dosage at which the strain was sensitive (Candida albicans [5]; strain R/HO13): ≤ 0.13 µg/mL
 | CCOC(=O)C(C)=O [Ethyl pyruvate] | inhibit | 10 | not toxic | Inhibition of the reaction of glyoxalase I of human erythrocytes [6]: inhibits; Inhibition of growth of fluconazole sensitive Candida albicans cells [1]: inhibit; Inhibition of growth and proliferation of different fungi (1-7) [7]: effectively inhibits; Inhibition of the reaction of yeast glyoxalase II (yeast glyoxalase II): inhibits; Inhibition of the reaction of glyoxalase II of human erythrocytes [8]: inhibits; Reduction of germ number in lavage of the oral cavity (Candida albicans [9]): < 5%; Inhibition of growth of yeast cells ([3]; listed as EP): inhibit; Inhibition of the reaction of yeast glyoxalase I (yeast glyoxalase I; listed as EP): inhibit

Compound | Inhibition of the reaction of yeast glyoxalase I (yeast glyoxalase I) | Inhibition of growth of fluconazole resistant Candida albicans cells [2] | IC50 (yeast glyoxalase I) [mM] | Toxicity / vitality of primary human fibroblasts [4] | further results
CCCCOC(=O)C(C)=O [Butyl pyruvate] | inhibit | inhibit | 7.5 |  | Inhibition of growth of fluconazole sensitive Candida albicans cells [1]: inhibit; Inhibition of growth of yeast cells [3]: inhibit
